Among the data in US7858652B2, “Substituted 4-imidazoles” (Hoffmann-La Roche Inc., priority 2006, dated 2010) are Ki and Kd values, retold here.

As usually defined, the Ki is the dissociation constant of the complex between target and ligand, obtained from inhibition or displacement. A lower Ki goes with higher affinity. As a reminder, the Kd is the concentration at which binding is half-saturated.

Each structure is given as a SMILES string.

T1 sequence (Q923Y8 whole entry): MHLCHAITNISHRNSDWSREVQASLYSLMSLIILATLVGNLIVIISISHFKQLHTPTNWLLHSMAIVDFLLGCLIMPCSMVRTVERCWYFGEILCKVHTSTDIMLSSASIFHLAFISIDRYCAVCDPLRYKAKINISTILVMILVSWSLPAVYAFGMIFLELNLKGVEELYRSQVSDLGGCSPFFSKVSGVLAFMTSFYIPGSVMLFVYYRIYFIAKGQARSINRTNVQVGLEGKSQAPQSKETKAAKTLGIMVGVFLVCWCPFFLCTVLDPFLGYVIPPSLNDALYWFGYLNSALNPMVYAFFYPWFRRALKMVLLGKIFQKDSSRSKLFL

The first assay concerns the target T1, TAAR1 (Mus musculus, UniProt Q923Y8).
T1 construct: expressed in transfected cells; host or cells: HEK293 cells (ATCC # CRL-1573), stably transfected with pIRESneo2 expression plasmid; membrane preparation
Briefly: Radioligand binding to TAAR1, membranes of stably transfected HEK293 cells, [3H]-rac-2-(1,2,3,4-tetrahydro-1-naphthyl)-2-imidazoline. The conditions noted are these: mouse TAAR1; 4° C., 30 minutes incubation; radioligand at 60 nM. How it is done:
The Expand High Fidelity PCR System (Roche Diagnostics) was used with 1.5 mM Mg^2+ and purified PCR products were cloned into pCR2.1-TOPO cloning vector (Invitrogen) following the instructions of the manufacturer. PCR products were subcloned into the pIRESneo2 vector (BD Clontech, Palo Alto, Calif.), and expression vectors were sequence verified before introduction in cell lines.
For the generation of stably transfected cell lines, HEK293 cells were transfected with the pIRESneo2 expression plasmids containing the TAAR coding sequences (described above) with Lipofectamine 2000 (Invitrogen) according to the instructions of the manufacturer, and 24 hours post transfection, the culture medium was supplemented with 1 mg/ml G418 (Sigma, Buchs, Switzerland). After a culture period of about 10 days, clones were isolated, expanded and tested for responsiveness to trace amines (all compounds purchased from Sigma) with the cAMP Biotrak Enzyme immunoassay (EIA) System (Amersham) following the non-acetylation EIA procedure provided by the manufacturer.
Cells at confluence were rinsed with ice-cold phosphate buffered saline without Ca^2+ and Mg^2+ containing 10 mM EDTA and pelleted by centrifugation at 1000 rpm for 5 minutes at 4° C. The pellet was then washed twice with ice-cold phosphate buffered saline and the cell pellet was frozen immediately by immersion in liquid nitrogen and stored until use at −80° C. The cell pellet was then suspended in 20 ml HEPES-NaOH (20 mM), pH 7.4 containing 10 mM EDTA, and homogenized with a Polytron (PT 3000, Kinematica) at 10,000 rpm for 10 seconds. The homogenate was centrifuged at 48,000×g for 30 minutes at 4° C. and the pellet resuspended in 20 ml HEPES-NaOH (20 mM), pH 7.4 containing 0.1 mM EDTA (buffer A), and homogenized with a Polytron at 10,000 rpm for 10 seconds. The homogenate was then centrifuged at 48,000×g for 30 minutes at 4° C. and the pellet resuspended in 20 ml buffer A, and homogenized with a Polytron at 10,000 rpm for 10 seconds. Protein concentration was determined by the method of Pierce (Rockford, Ill.). The homogenate was then centrifuged at 48,000×g for 10 minutes at 4° C., resuspended in HEPES-NaOH (20 mM), pH 7.0 including MgCl2 (10 mM) and CaCl2 ([…]) (buffer B) at 200 μg protein per ml and homogenized with a Polytron at 10,000 rpm for 10 seconds.
Binding assay was performed at 4° C. in a final volume of 1 ml, and with an incubation time of 30 minutes. […] Non-specific binding was defined as the amount of [^3H]-rac-2-(1,2,3,4-tetrahydro-1-naphthyl)-2-imidazoline bound in the presence of the appropriate unlabelled ligand (10 μM). Competing ligands were tested in a wide range of concentrations (10 pM-30 μM). […] Each experiment was performed in duplicate. All incubations were terminated by rapid filtration through UniFilter-96 plates (Packard Instrument Company) and glass filter GF/C) pre-soaked for at least 2 hours in polyethylenimine 0.3%, and using a Filtermate 96 Cell Harvester (Packard Instrument Company). The tubes and filters were then washed 3 times with 1 ml aliquots of cold buffer B. Filters were not dried and soaked in Ultima gold (45 μl/well, Packard Instrument Company) and bound radioactivity was counted by a TopCount Microplate Scintillation Counter (Packard Instrument Company).
Turning to `Cc1ccc2c(c1)N(Cc1cnc[nH]1)CC2` [Example 34, 1-(1H-Imidazol-4-ylmethyl)-6-methyl-2,3-dihydro-1H-indole], the affinity corresponds to a Ki of 0.0133 µM.

In turn, `Brc1ccc2c(c1)CCCN2Cc1cnc[nH]1` [Example 33, 6-Bromo-1-(H-imidazol-4-ylmethyl)-1,2,3,4-tetrahydro-quinoline] came in with a Ki of 0.003 µM.

The compound `Clc1ccc2c(c1)CCN2Cc1cnc[nH]1` [Example 14, 5-Chloro-1-(1H-imidazol-4-ylmethyl)-2,3-dihydro-1H-indole] had a Ki of 0.0102 µM. As to `Fc1ccc2c(c1)CCN2Cc1cnc[nH]1` [Example 36, 5-Fluoro-1-(1H-imidazol-4-ylmethyl)-2,3-dihydro-1H-indole], the affinity corresponds to a Ki of 0.0277 µM. In turn, `c1ccc(COc2ccc3c(c2)N(Cc2cnc[nH]2)CCC3)cc1` [Example 57, 7-Benzyloxy-1-(1H-imidazol-4-ylmethyl)-1,2,3,4-tetrahydro-quinoline] showed a Ki of 0.0702 µM. On the same count and under the same terms, for `CC1CCc2ccccc2N1Cc1cnc[nH]1` (single isomer, unassigned; (-)) [Example 47, (−)-1-(1H-Imidazol-4-ylmethyl)-2-methyl-1,2,3,4-tetrahydro-quinoline] the value was 0.0872 µM; for `COc1cccc2c1N(Cc1cnc[nH]1)CC2` [Example 28, 1-(1H-Imidazol-4-ylmethyl)-7-methoxy-2,3-dihydro-1H-indole], 0.0409 µM. `c1ccc2c(c1)CCCN2Cc1cnc[nH]1` [Example 7, 1-(3H-Imidazol-4-ylmethyl)-1,2,3,4-tetrahydro-quinoline] returned a Ki of 0.0264 µM. `CC1COc2ccccc2N1Cc1cnc[nH]1` (racemic) [Example 45, (R,S)-4-(1H-Imidazol-4-ylmethyl)-3-methyl-3,4-dihydro-2H-benzo[1,4]oxazine] yielded a Ki of 0.017 µM. Compound `Brc1ccc2c(c1)CCN2Cc1cnc[nH]1` [Example 4, 5-Bromo-1-(1H-imidazol-4-ylmethyl)-2,3-dihydro-1H-indole] had a Ki of 0.0091 µM. The same measure, in the same setting: for `Fc1ccc2c(c1)N(Cc1cnc[nH]1)CC2` [Example 37, 6-Fluoro-1-(1H-imidazol-4-ylmethyl)-2,3-dihydro-1H-indole] the value was 0.0106 µM; for `Cc1ccc2c(c1)CCN2Cc1cnc[nH]1` [Example 29, 1-(1H-Imidazol-4-ylmethyl)-5-methyl-2,3-dihydro-1H-indole], 0.0115 µM; for `CC1Cc2cc(Cl)ccc2N1Cc1cnc[nH]1` (racemic) [Example 16, (R,S)-5-Chloro-1-(1H-imidazol-4-ylmethyl)-2-methyl-2,3-dihydro-1H-indole], 0.0345 µM. In turn, `COc1cccc2c1CCN2Cc1c[nH]cn1` [Example 31, 1-(1H-Imidazol-4-ylmethyl)-4-methoxy-2,3-dihydro-1H-indole] returned a Ki of 0.0243 µM. For the compound `Fc1cc2c(cc1F)N(Cc1cnc[nH]1)CC2` [Example 38, 5,6-Difluoro-1-(1H-imidazol-4-ylmethyl)-2,3-dihydro-1H-indole], the Ki is 0.0144 µM. `CC1Cc2cc(F)ccc2N1Cc1cnc[nH]1` (racemic) [Example 39, (R,S)-5-Fluoro-1-(1H-imidazol-4-ylmethyl)-2-methyl-2,3-dihydro-1H-indole] registered a Ki of 0.0493 µM.

`Cc1cccc2c1N(Cc1cnc[nH]1)CC2` [Example 40, 1-(1H-Imidazol-4-ylmethyl)-7-methyl-2,3-dihydro-1H-indole] had a Ki of 0.0405 µM. `c1ccc(Oc2cccc3c2CCCN3Cc2c[nH]cn2)cc1` [Example 61, 1-(1H-Imidazol-4-ylmethyl)-5-phenoxy-1,2,3,4-tetrahydro-quinoline] registered a Ki of 0.0027 µM. With `CC1CCc2cc(F)ccc2N1Cc1cnc[nH]1` (racemic) [Example 6, (R,S)-6-Fluoro-1-(1H-imidazol-4-ylmethyl)-2-methyl-1,2,3,4-tetrahydro-quinoline], the inhibition constant Ki turned out to be 0.0598 µM.

Turning to `Clc1cccc2c1CCN2Cc1cnc[nH]1` [Example 25, 4-Chloro-1-(1H-imidazol-4-ylmethyl)-2,3-dihydro-1H-indole], the affinity corresponds to a Ki of 0.0016 µM.

`c1ccc2c(c1)OCCN2Cc1cnc[nH]1` [Example 18, 4-(1H-Imidazol-4-ylmethyl)-3,4-dihydro-2H-benzo[1,4]oxazine] returned a Ki of 0.0578 µM.

`CCc1cccc2c1N(Cc1cnc[nH]1)CC2` [Example 23, 7-Ethyl-1-(1H-imidazol-4-ylmethyl)-2,3-dihydro-1H-indole] had a Ki of 0.0042 µM. Compound `c1ccc2c(c1)CCCCN2Cc1cnc[nH]1` [Example 44, 1-(3H-Imidazol-4-ylmethyl)-2,3,4,5-tetrahydro-1H-benzo[b]azepine] showed an inhibitory constant (Ki) of 0.0151 µM. As for `COc1ccc2c(c1)CCN2Cc1cnc[nH]1` [Example 26, 1-(1H-Imidazol-4-ylmethyl)-5-methoxy-2,3-dihydro-1H-indole], the affinity, expressed as Ki, was 0.0834 µM. `CC1COc2ccccc2N1Cc1cnc[nH]1` (single isomer, unassigned; (-)) [Example 49, (−)-4-(1H-Imidazol-4-ylmethyl)-3-methyl-3,4-dihydro-2H-benzo[1,4]oxazine] yielded a Ki of 0.0573 µM. `COc1ccc2c(c1)N(Cc1cnc[nH]1)CC2` [Example 27, 1-(1H-Imidazol-4-ylmethyl)-6-methoxy-2,3-dihydro-1H-indole] came in with a Ki of 0.0389 µM.

In turn, `CC1CCc2ccccc2N1Cc1cnc[nH]1` (racemic) [Example 3, (R,S)-1-(1H-Imidazol-4-ylmethyl)-2-methyl-1,2,3,4-tetrahydro-quinoline] registered a Ki of 0.0258 µM. Still for that read-out and setting: for `CC1CN(Cc2cnc[nH]2)c2ccccc21` (racemic) [Example 35, (R,S)-1-(1H-Imidazol-4-ylmethyl)-3-methyl-2,3-dihydro-1H-indole] the value was 0.0323 µM; for `Cc1cccc2c1CCN2Cc1cnc[nH]1` [Example 41, 1-(1H-Imidazol-4-ylmethyl)-4-methyl-2,3-dihydro-1H-indole], 0.0104 µM. `Clc1cccc2c1N(Cc1cnc[nH]1)CC2` [Example 32, 7-Chloro-1-(H-imidazol-4-ylmethyl)-2,3-dihydro-1H-indole] displayed a Ki of 0.0403 µM.

With `c1ccc(COc2cccc3c2CCCN3Cc2cnc[nH]2)cc1` [Example 55, 5-Benzyloxy-1-(1H-imidazol-4-ylmethyl)-1,2,3,4-tetrahydro-quinoline], the affinity corresponds to a Ki of 0.0046 µM. For the compound `CC1Cc2ccccc2N1Cc1cnc[nH]1` (racemic) [Example 1, (R,S)-1-(1H-Imidazol-4-ylmethyl)-2-methyl-2,3-dihydro-1H-indole], the affinity, expressed as Ki, was 0.0688 µM. Still for that read-out and setting: for `COc1ccc2c(c1)CCCCN2Cc1cnc[nH]1` [Example 43, 1-(3H-Imidazol-4-ylmethyl)-7-methoxy-2,3,4,5-tetrahydro-1H-benzo[b]azepine] the value was 0.0538 µM.

The same assay, now with this note: radioligand of the TAAR1 binding assay; species not stated; read-out: calculated Kd value of the radioligand.
On to `c1ccc2c(c1)CCCC2C1=NCCN1` (racemic) [[^3H]-rac-2-(1,2,3,4-tetrahydro-1-naphthyl)-2-imidazoline, reference compound], for which the equilibrium dissociation constant (Kd) was 60 nM.
